Read-outs that look alike come from different tables or passages of the source.
How the values were obtained:
[1] = system: JAK1-dependent STAT6 phosphorylation downstream of IL-13 stimulation in TF-1 human erythroleukemia cells; assay: JAK1 pathway assay in TF-1 cells (IL-13-pSTAT6, MSD); assay type: cell-based; settings: read-out: IL13-pSTAT6 EC50_TF-1
Description: JAK1 Pathway Assay in Cell Lines was Carried Out as Follows:
Inhibitor potency (EC50) was determined in cell-based assays designed to measure JAK1 dependent STAT phosphorylation.
In one assay approach, TF-1 human erythroleukemia cells obtained from the American Type Culture Collection (ATCC; Manassas, Va.) were used to measure JAK1-dependent STAT6 phosphorylation downstream of IL-13 stimulation. Prior to use in the assays, TF-1 cells were starved of GM-CSF overnight in OptiMEM medium (Life Technologies, Grand Island, N.Y.) supplemented with 0.5% charcoal/dextran stripped fetal bovine serum (FBS), 0.1 mM non-essential amino acids (NEAA), and 1 mM sodium pyruvate. The assays were run in 384-well plates in serum-free OptiMEM medium using 300,000 cells per well. In a second assay approach, BEAS-2B human bronchial epithelial cells obtained from ATCC were plated at 100,000 cells per well of a 96-well plate one day prior to the experiment. The BEAS-2B assay was run in complete growth medium (bronchial epithelial basal medium plus bulletkit; Lonza; Basel, Switzerland).
Test compounds were serially diluted 1:2 in DMSO and then diluted 1:50 in medium just before use. Diluted compounds were added to the cells, for a final DMSO concentration of 0.2%, and incubated for 30 min (for the TF-1 assay) or 1 hr (for the BEAS-2B assay) at 37° C. Then, cells were stimulated with human recombinant cytokine at their respective EC90 concentrations, as previously determined for each individual lot. Cells were stimulated with IL-13 (R&D Systems, Minneapolis, Minn.) for 15 min at 37° C. The TF-1 cell reactions were stopped by the direct addition of 10× lysis buffer (Cell Signaling Technologies, Danvers, Mass.), whereas the BEAS-2B cell incubations were halted by the removal of medium and addition of 1× lysis buffer. The resultant samples were frozen in the plates at −80° C. Compound mediated inhibition of STAT6 phosphorylation was measured in the cell lysates using MesoScale Discovery (MSD) technology (Gaithersburg, Md.).

[2] = target: isolated recombinant JAK2 kinase domain (Homo sapiens (Human), UniProt O60674); assay: JAK2 enzyme assay (Caliper LabChip, peptide phosphorylation); assay type: biochemical; settings: 25 μM ATP
Sequence of isolated recombinant JAK2 kinase domain (O60674 849-1124): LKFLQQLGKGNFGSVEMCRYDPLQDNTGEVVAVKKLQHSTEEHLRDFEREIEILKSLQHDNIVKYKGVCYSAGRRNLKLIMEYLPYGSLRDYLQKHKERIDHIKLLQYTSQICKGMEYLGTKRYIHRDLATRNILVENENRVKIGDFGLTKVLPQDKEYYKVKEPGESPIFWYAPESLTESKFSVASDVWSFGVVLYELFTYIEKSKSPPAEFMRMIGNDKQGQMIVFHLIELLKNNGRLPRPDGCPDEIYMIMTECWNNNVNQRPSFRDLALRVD

[3] = target: isolated recombinant JAK1 kinase domain (Homo sapiens (Human), UniProt P23458); assay: JAK1 enzyme assay (Caliper LabChip, peptide phosphorylation); assay type: biochemical; settings: isolated recombinant JAK1 kinase domain, 25 μM ATP
Sequence of isolated recombinant JAK1 kinase domain (P23458 875-1153): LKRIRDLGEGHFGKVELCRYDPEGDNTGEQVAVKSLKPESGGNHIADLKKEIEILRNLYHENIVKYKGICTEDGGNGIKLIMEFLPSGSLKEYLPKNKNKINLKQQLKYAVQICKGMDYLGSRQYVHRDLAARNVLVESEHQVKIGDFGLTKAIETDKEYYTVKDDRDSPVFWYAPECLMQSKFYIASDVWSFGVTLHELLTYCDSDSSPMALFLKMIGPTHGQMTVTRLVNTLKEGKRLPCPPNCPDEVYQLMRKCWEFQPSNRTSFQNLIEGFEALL

`O=C(Nc1cn(CC(=O)N2CC[C@@H]3CNCC[C@@H]32)nc1-c1cc(Cl)ccc1OC(F)F)c1cnn2cccnc12` [Example 20, N-[1-[2-[(3aR,7aS)-2,3,3a,4,5,6,7,7a-octahydropyrrolo[3,2-c]pyridin-1-yl]-2-oxo-ethyl]-3-[5-chloro-2-(difluoromethoxy)phenyl]pyrazol-4-yl]pyrazolo[1,5-a]pyrimidine-3-carboxamide] was tested, and the EC50 ([1]; Homo sapiens, TF-1, TF-1 cells) was 344 nM, the Ki [2] was 1.21 nM and the Ki [3] was 0.51 nM.

`O=C(Nc1cn(CC(=O)N2CCC(N(Cc3ccccc3)CC(F)(F)F)CC2)nc1-c1cc(Cl)ccc1OC(F)F)c1cnn2cccnc12` [Example 116, N-[1-[2-[4-[benzyl(2,2,2-trifluoroethyl)amino]-1-piperidyl]-2-oxo-ethyl]-3-[5-chloro-2-(difluoromethoxy)phenyl]pyrazol-4-yl]pyrazolo[1,5-a]pyrimidine-3-carboxamide] showed an EC50 ([1]; Homo sapiens, TF-1, TF-1 cells) of 23.3 nM, a Ki [2] of 7.04 nM and a Ki [3] of 3.76 nM.

Compound `O=C(Nc1cn(CC(=O)N2C[C@H]3CN(CC4CCN(C(=O)OCc5ccccc5)CC4)C[C@H]3C2)nc1-c1cc(Cl)ccc1OC(F)F)c1cnn2cccnc12` [Example 17, benzyl 4-[[(3aR,6aS)-5-[2-[3-[5-chloro-2-(difluoromethoxy)phenyl]-4-(pyrazolo[1,5-a]pyrimidine-3-carbonylamino)pyrazol-1-yl]acetyl]-1,3,3a,4,6,6a-hexahydropyrrolo[3,4-c]pyrrol-2-yl]methyl]piperidine-1-carboxylate] has an EC50 ([1]; Homo sapiens, TF-1, TF-1 cells) of 80.9 nM, a Ki [2] of 0.85 nM and a Ki [3] of 0.71 nM.

With `Nc1nn2cccnc2c1C(=O)Nc1cn(CC(=O)N2CCC(N3CC[C@H](O)C3)CC2)nc1-c1cc(Cl)ccc1OC(F)F` [Example 77, 2-amino-N-[3-[5-chloro-2-(difluoromethoxy)phenyl]-1-[2-[4-[(3S)-3-hydroxypyrrolidin-1-yl]-1-piperidyl]-2-oxo-ethyl]pyrazol-4-yl]pyrazolo[1,5-a]pyrimidine-3-carboxamide] the EC50 ([1]; Homo sapiens, TF-1, TF-1 cells) was 210 nM, the Ki [2] was 0.51 nM and the Ki [3] was 0.6 nM.

Compound `O=C(Nc1cn(CC(=O)N2C[C@H]3CN(CCCN4C(=O)Cc5ccccc54)C[C@H]3C2)nc1-c1cc(Cl)ccc1OC(F)F)c1cnn2cccnc12` [Example 54, N-[1-[2-[(3aR,6aS)-2-[3-(2-oxoindolin-1-yl)propyl]-1,3,3a,4,6,6a-hexahydropyrrolo[3,4-c]pyrrol-5-yl]-2-oxo-ethyl]-3-[5-chloro-2-(difluoromethoxy)phenyl]pyrazol-4-yl]pyrazolo[1,5-a]pyrimidine-3-carboxamide] has an EC50 ([1]; Homo sapiens, TF-1, TF-1 cells) of 15.1 nM, a Ki [2] of 0.67 nM and a Ki [3] of 0.76 nM.

`CS(=O)(=O)CCN1C[C@@H]2CN(C(=O)Cn3cc(NC(=O)c4cnn5cccnc45)c(-c4cc(Cl)ccc4OC(F)F)n3)C[C@@H]2C1` [Example 31, N-[1-[2-[(3aS,6aR)-2-(2-methylsulfonylethyl)-1,3,3a,4,6,6a-hexahydropyrrolo[3,4-c]pyrrol-5-yl]-2-oxo-ethyl]-3-[5-chloro-2-(difluoromethoxy)phenyl]pyrazol-4-yl]pyrazolo[1,5-a]pyrimidine-3-carboxamide] gave an EC50 ([1]; Homo sapiens, TF-1, TF-1 cells) of 102 nM, a Ki [2] of 0.53 nM and a Ki [3] of 0.37 nM.

`CN(CC(F)(F)F)C1CCN(C(=O)C2CCN(c3nc(-c4cc(Cl)ccc4OC(F)F)c(NC(=O)c4cnn5cccnc45)s3)CC2)CC1` [Example 202, N-[4-[5-chloro-2-(difluoromethoxy)phenyl]-2-[4-[4-[methyl(2,2,2-trifluoroethyl)amino]piperidine-1-carbonyl]-1-piperidyl]thiazol-5-yl]pyrazolo[1,5-a]pyrimidine-3-carboxamide] gave an EC50 ([1]; Homo sapiens, TF-1, TF-1 cells) of 15.8 nM, a Ki [2] of 1.82 nM and a Ki [3] of 1.1 nM.

Work on `CN1CC[C@H]2CN(C(=O)Cn3cc(NC(=O)c4cnn5cccnc45)c(-c4cc(Cl)ccc4OC(F)F)n3)CC[C@H]21` [Example 42, N-[1-[2-[(3aS,7aR)-1-methyl-3,3a,4,6,7,7a-hexahydro-2H-pyrrolo[3,2-c]pyridin-5-yl]-2-oxo-ethyl]-3-[5-chloro-2-(difluoromethoxy)phenyl]pyrazol-4-yl]pyrazolo[1,5-a]pyrimidine-3-carboxamide] yielded an EC50 ([1]; Homo sapiens, TF-1, TF-1 cells) of 3.1 nM, a Ki [2] of 0.67 nM and a Ki [3] of 0.69 nM.

`CN(CCCC(N)=O)C1CCN(c2nc(-c3cc(Cl)ccc3OC(F)F)c(NC(=O)c3cnn4cccnc34)s2)CC1` [Example 193, N-[2-[4-[(4-amino-4-oxo-butyl)-methyl-amino]-1-piperidyl]-4-[5-chloro-2-(difluoromethoxy)phenyl]thiazol-5-yl]pyrazolo[1,5-a]pyrimidine-3-carboxamide] was tested, and the EC50 ([1]; Homo sapiens, TF-1, TF-1 cells) was 23.5 nM, the Ki [2] was 1.46 nM and the Ki [3] was 2.23 nM.

In the case of `Nc1nn2cccnc2c1C(=O)Nc1cn(C2CCN(CCCC(=O)N3CCCCC3)CC2)nc1-c1cc(Cl)ccc1OC(F)F` [Example 143, 2-amino-N-[3-[5-chloro-2-(difluoromethoxy)phenyl]-1-[1-[4-oxo-4-(1-piperidyl)butyl]-4-piperidyl]pyrazol-4-yl]pyrazolo[1,5-a]pyrimidine-3-carboxamide], the EC50 ([1]; Homo sapiens, TF-1, TF-1 cells) is reported as 20.4 nM, the Ki [2] is reported as 0.18 nM and the Ki [3] is reported as 0.76 nM.

`Nc1nn2cccnc2c1C(=O)Nc1cn([C@H]2CCNC2)nc1-c1cc(Cl)ccc1OC(F)F` [Example 186, 2-amino-N-[3-[5-chloro-2-(difluoromethoxy)phenyl]-1-[(3S)-pyrrolidin-3-yl]pyrazol-4-yl]pyrazolo[1,5-a]pyrimidine-3-carboxamide] gave an EC50 ([1]; Homo sapiens, TF-1, TF-1 cells) of 12.3 nM, a Ki [2] of 0.2 nM and a Ki [3] of 0.71 nM.

`CNC(=O)CCN1CCC(n2cc(NC(=O)c3cnn4cccnc34)c(-c3cc(Cl)ccc3OC(F)F)n2)CC1` [Example 160, N-[3-[5-chloro-2-(difluoromethoxy)phenyl]-1-[1-[3-(methylamino)-3-oxo-propyl]-4-piperidyl]pyrazol-4-yl]pyrazolo[1,5-a]pyrimidine-3-carboxamide] showed an EC50 ([1]; Homo sapiens, TF-1, TF-1 cells) of 19.3 nM, a Ki [2] of 0.39 nM and a Ki [3] of 3.02 nM.

With `CN1C[C@@H]2CN(C(=O)Cn3cc(NC(=O)c4cnn5cccnc45)c(-c4cc(Cl)ccc4OC(F)F)n3)C[C@]2(c2ccccc2)C1` [Example 44, N-[1-[2-[(3aR,6aR)-2-methyl-3a-phenyl-3,4,6,6a-tetrahydro-1H-pyrrolo[3,4-c]pyrrol-5-yl]-2-oxo-ethyl]-3-[5-chloro-2-(difluoromethoxy)phenyl]pyrazol-4-yl]pyrazolo[1,5-a]pyrimidine-3-carboxamide] the EC50 ([1]; TF-1 cells) was 6.7 nM, the Ki [2] was 0.22 nM and the Ki [3] was 0.54 nM.

`NC(=O)CCCN1CCC(n2cc(NC(=O)c3cnn4cccnc34)c(-c3cc(Cl)ccc3OC(F)F)n2)CC1` [Example 170, N-[1-[1-(4-amino-4-oxo-butyl)-4-piperidyl]-3-[5-chloro-2-(difluoromethoxy)phenyl]pyrazol-4-yl]pyrazolo[1,5-a]pyrimidine-3-carboxamide] showed an EC50 ([1]; Homo sapiens, TF-1, TF-1 cells) of 11.4 nM, a Ki [2] of 0.25 nM and a Ki [3] of 1.67 nM.

For `CN1CCN(C(=O)c2ccc(-c3nc(-c4cc(Cl)ccc4OC(F)F)c(NC(=O)c4cnn5cccnc45)s3)cc2)CC1` [Example 259, N-[4-[5-chloro-2-(difluoromethoxy)phenyl]-2-[4-(4-methylpiperazine-1-carbonyl)phenyl]thiazol-5-yl]pyrazolo[1,5-a]pyrimidine-3-carboxamide], the EC50 ([1]; Homo sapiens, TF-1, TF-1 cells) was 13 nM, the Ki [2] was 0.56 nM and the Ki [3] was 0.93 nM.

— patent publication US9346815B2, “5-chloro-2-difluoromethoxyphenyl pyrazolopyrimidine compounds, compositions and methods of use thereof” (Genentech, Inc., priority 2014, dated 2016)
